Measured values from article PMC4448988 (Pharmacology Research & Perspectives, 2015).

What was measured:
[1] = system: ED-71 O-dehydroxypropylation activity in human small intestine microsomes; format: in vitro ADME; settings: 1 μmol/L ketoconazole
human CYP24A1 = human CYP24A1 (Homo sapiens, UniProt Q07973); format: in vitro ADME; settings: pH 7.4

## CC(=O)N1CCN(c2ccc(OCC3COC(Cn4ccnc4)(c4ccc(Cl)cc4Cl)O3)cc2)CC1 (centres unmarked) [ketoconazole]
[1]
  ED-71 O-dehydroxypropylation activity reduced to (remaining activity): 37%

## C=C1/C(=C\C=C2/CCC[C@]3(C)[C@@H]([C@H](C)CCCC(C)(C)O)CC[C@@H]23)C[C@@H](O)C[C@@H]1O [1α,25(OH)2D3, 1α,25-dihydroxyvitamin D3]
Human CYP24A1
  Relative kcat/Km: 1
